Reference: patent publication US20240188568A1, “ENVIRONMENTALLY FRIENDLY COMPOSITIONS AND METHODS OF THEIR USE FOR PROMOTING THE GROWTH OF TURFGRASS OVER WEEDS” (Edaphix, LLC, priority 2021, published 2024)

What was measured:
[1] = 2005 carcinogen assessment guidelines; cited from earlier work
seed geranium = conditions: in combination with nitrogen, phosphorus, and potassium; Lee and others (1996); cited from earlier work
chlorophyllitic plants = conditions: as little as; cited from earlier work
turf weeds = assay: Turfgrass test plots, Bozeman, MT: weed cover; assay type: in vivo
Text: (§1) Initially, a series of small turfgrass test plots was studied to gather preliminary information that helped guide the establishment of this larger, long-term study involving multiple rates and formulations. The test plots of this experiment were established in a weedy turfgrass location within the Bridger Creek Subdivision Community Association, Phase 1, Section 31, Township 1 South, Range 6 East, P.M.M., City of Bozeman, Gallatin County, Montana. The experimental site was established in a location with approximately 20 inches of annual precipitation, with annual maximum precipitation amounts observed in May and June. Winter conditions with frozen ground prevail during approximately 5 months of the year (November-March). Soils have high organic matter content in the upper six inches and are underlain by floodplain gravels and a water table 3-15 feet below ground surface. The primary turf weeds at this location in their order of relative prevalence are clover, dandelion, creeping Charlie, oxeye daisy, black medic and Canadian thistle. […]
(§2) The plots were typically 50 square feet (FIG. 1). Vegetation cover measurements were made using a frame placed on the turf and an estimate was calculated for the proportion of perennial grasses and weeds in each frame (FIG. 2). […] Since installation of the first plots, they have been monitored 5 times over a period of 21 months for vegetation cover. […]

perennial grasses = assay: Turfgrass test plots, Bozeman, MT: healthy perennial grass cover and turf stress; assay type: in vivo; conditions: healthy perennial grass cover averaged over each treatment category, 21 months (Table 3)
Text: as §1, with “surface.” for “surface. The primary turf weeds at this location in their order of relative prevalence are clover, dandelion, creeping Charlie, oxeye daisy, black medic and Canadian thistle.”
as §2
The boron-only plots caused turf stress and yellowing. Immediately following application in monitoring, healthy and unhealthy/stressed turf was measured based on tissue color. […]

French marigold = conditions: Jong et al. (1996); cited from earlier work

borate salts
U.S. EPA carcinogenicity classification [1]: not likely to be carcinogenic to humans

[Mo] [Mo, molybdenum]
concentration of nutrient solution inducing micronutrient toxicity symptoms (seed geranium): 250 ng/mL

O=C(O)CNCP(=O)(O)O [glyphosate]
application rate effective at causing photosynthetic disruption (chlorophyllitic plants): 0.75 pounds active ingredient per acre

OB(O)O [boric acid]
U.S. EPA carcinogenicity classification [1]: not likely to be carcinogenic to humans

O=C(O)COc1ccc(Cl)cc1Cl [2-4 D, 2,4-Dichlorophenoxyacetic acid]
weed cover, typical (turf weeds; typical value over the first 2 years of monitoring (FIG. 3), control about 50%): ~20% | Average Percent Ground Cover For 21-Month Monitoring Period, Weeds (turf weeds; weed cover averaged over each treatment category, 21 months (Table 3)): 13% | Average Percent Ground Cover For 21-Month Monitoring Period, Turf Grass (perennial grasses): 80%

[Cu] [Cu, copper]
concentration of nutrient solution inducing micronutrient toxicity symptoms (seed geranium): 500 ng/mL

[Zn] [Zn, zinc]
concentration of nutrient solution inducing micronutrient toxicity symptoms (seed geranium): 500 ng/mL

[B] [boron]
concentration of nutrient solution inducing micronutrient toxicity symptoms (seed geranium): 500 ng/mL | concentration inducing micro-nutrient toxicity (French marigold): 500 ng/mL
